Results: patent US4701325A, “Injectable aqueous solution containing hydrogensulfite and/or sulfite and anticancerous benzodiazepine compound” (priority 1983, dated 1987)
Structures can show the parent of a compound that is named as a salt.

What was measured:
[1] = system: ear vein of white rabbits; assay: Tissue injury (edema ratio) after intravenous administration into the ear vein of rabbits for 5 days; assay type: in vivo; details: ear vein once a day for 5 days; measured 4 days after final administration; compound B 0.16 mg/Kg/day, NaHSO3 1.6 mg/Kg/day
Experimental: The same materials as those in Example 1 were used to determine the effect thereof administered to white rabbits (male, 2.0-2.3 kg) in groups of four in the ear vein once a day for consective 5 days. The material adminitered to the respective groups was (1) physiological saline, or (2) 0.16 mg of the compound B/Kg/day, (3) 0.16 mg of the compound B+1.6 mg of NaHSO3 /Kg/day or (4) 1.6 mg of NaHSO3 /Kg/day. The solution volumes to be administered were all fixed at 0.5 ml/Kg/day which contains respective material or materials in the above dosage.
For confirmation of the effect, the appearance was observed and the thickness at the administration site was measured 4 days after the final administration to serve as the index of tissue injury.
The edema ratio was determined according to the following equation. [formula]

[2] = Stability of compound B in aqueous solution of NaHSO3 or Na2SO3 by HPLC; assay type: physicochemical; details: 3 hours at room temperature, 0.2 mg/ml compound B, Sample: with 2.0 mg/ml NaHSO3 or Na2SO3, read-out: Ratio of remaining compound B
Experimental: It was confirmed that the stability of the compound B was not affected when an aqueous solution of NaHSO3 or Na2 SO3 was used as the dissolving medium of the compound B. In a sample of 10 ml of an aqueous solution containing 0.2 mg of the compound B and 2.0 mg of NaHSO3 or Na2 SO3 in 1 ml thereof, analysis was made on high-performance liquid chromatography just after dissolving the compound B and after standing the solution for 3 hours at room temperature, to examine the stability of the compound B. The results are as shown in Table 3.

[3] = system: p 388 leukemia; assay: Antitumor activity in p 388 leukemia cancer-bearing BDF1 mice; assay type: in vivo; details: i.v. once a day for 4 days, compound B 2 mg/Kg/day, NaHSO3 or Na2SO3 20 mg/kg/day
Experimental: By the comparative examintion of mean survival days of the mice, index of life saving was calculated by the equation below: [formula]

[4] = Acute toxicity (LD50) in ddY strain mice; assay type: in vivo; details: mouse, in vivo, iv, male ddY mice 18-20 g; combination with 10 times amount of NaHSO3
Experimental: (§1) The materials were administered to ddY strain mice (male, 18-20 g) intravenously to determine the LD50 (mg/Kg). […] Incidentally, NaHSO3 or Na2 SO 3 itself is a substance prescribed in Japanese Parmacopoeia and its safety has been established already.

[5] = system: ddY strain mice; assay: Acute toxicity (LD50) in ddY strain mice; assay type: in vivo; details: i.v., mice; 10 times amount of NaHSO3
Experimental: as §1

SMILES	Edema ratio (%) [1] [%]	remaining at 3 h [2] [%]	Mean survival day ([3]; control 10 days) [days]	Index of life saving (%) ([3]; relative to physiological saline)	LD50 [4] [mg/kg]	Effect on acute toxicity of the compound B (in words) [5]
Cc1ccc2c(c1O)NC(S(=O)O)C1CC(/C=C/C(N)=O)=CN1C2=O (stereo not shown) [Compound B, sodium salt of 5,10,11,11a-terahydro-9-hydroxy-8-methyl-5-oxo-11-sulfino-1H-pyrrolo[2,1-c][1,4]benzodiazepin-2-acrylamide]	169.4	100	18.0	80	6.23	–
O=S([O-])O.[Na+] [NaHSO3, sodium hydrogensulfite, reference compound]	0.0	–	–	–	–	did not affect the acute toxicity of the compound B at all
